In patent US20090306165A1, “DIPEPTIDE COMPOUNDS CONTAINING D-HISTIDINE” (priority 2006, published 2009):

Legend:
[1] = distribution in the rat after oral administration; assay type: in vivo
[2] = pharmacokinetic studies on laboratory animals monitoring plasma carnosine content by liquid chromatography-ESI triple quadrupole mass spectrometry; assay type: in vivo
[3] = detoxification of alpha, beta-unsaturated carbonyl compounds; conditions: compared with L-carnosine

distribution in the lung [1]: distributed in the lung | gastrointestinal absorption [2]: poor gastrointestinal absorption
Structure (SMILES): NCCC(=O)N[C@H](Cc1c[nH]cn1)C(=O)O [D-carnosine, β-alanyl-D-histidine]
detoxification of the alpha, beta-unsaturated carbonyl compounds [3]: performs the same detoxification
